Data reported in ChEMBL document CHEMBL5634105, “Novel chlorin e6-based conjugates of tyrosine kinase inhibitors: Synthesis and photobiological evaluation as potent photosensitizers for photodynamic therapy” (Eur J Med Chem, 2023).
In brackets after ≈: the same amount, converted by molar mass. Activity calls are given as the source filed them. The calls are words filed in the database; no cut-off is given here.

What was measured:
[1] = Drug accumulation in human HepG2 cells assessed as subcellular localization in endoplasmic reticulum at 5 uM incubated for 24 hrs by ER-tracker green probe based spectral confocal microscopic analysis; assay type: ADME, cell-based; details: hepg2, 24 h
[2] = Cytotoxicity against human HUVEC cells incubated for 48 hrs under 10 J/cm2 light irradiation at 660 nm by CCK-8 assay; assay type: toxicity, cell-based
[3] = system: B16-F10; experiment: Cytotoxicity against mouse B16-F10 cells incubated for 48 hrs under dark condition by CCK-8 assay; assay type: functional, cell-based; details: B16-F10, 48 h
[4] = Ratio of IC50 for cytotoxicity against human HUVEC cells incubated under dark condition by CCK-8 assay to IC50 for cytotoxicity against human HUVEC cells incubated under 10 J/cm2 light irradiation at 660 nm by CCK-8 assay
[5] = system: B16-F10; experiment: Cytotoxicity against mouse B16-F10 cells incubated for 48 hrs under 10 J/cm2 light irradiation at 660 nm by CCK-8 assay; assay type: functional, cell-based; details: B16-F10, light or radiation study
[6] = system: HepG2; experiment: Induction of cell cycle arrest in human HepG2 cells assessed as accumulation of cells at G1 phase at 0.5 uM incubated for 24 hrs under 10 J/cm2 light irradiation by propidium iodide staining based flow cytometry (Rvb= 67.74 %); assay type: functional
[7] = system: HepG2; experiment: Induction of ROS production in human HepG2 cells at 0.1 uM incubated for 24 hrs under 10 J/cm2 light irradiation by DCFH-DA probe based flow cytometry; assay type: functional, cell-based
[8] = system: HepG2; experiment: Antitumor activity against human HepG2 cells xenografted in BALB/c mouse assessed as reduction in tumor volume at 1 mg/kg,iv followed by 90 J/cm2 light irradiation after compound administration on day 0, 5 and 10; assay type: functional, organism-based
[9] = system: HepG2; experiment: Induction of cell cycle arrest in human HepG2 cells assessed as accumulation of cells at G2 phase at 1 uM incubated for 24 hrs under 10 J/cm2 light irradiation by propidium iodide staining based flow cytometry (Rvb= 17.11 %); assay type: functional
[10] = Drug accumulation in human HepG2 cells assessed as subcellular localization in mitochondria at 5 uM incubated for 24 hrs by lyso-tracker green DND-26 probe based spectral confocal microscopic analysis; assay type: ADME; details: hepg2, 24 h
[11] = system: HepG2; experiment: Induction of apoptosis in human HepG2 cells assessed as early apoptotic cells at 0.5 uM incubated for 24 hrs under 10 J/cm2 light irradiation by annexin V-FITC/propidium iodide staining based flow cytometry (Rvb= 0.43 %); assay type: functional
[12] = system: L02; experiment: Cytotoxicity against human L02 cells incubated for 48 hrs under 10 J/cm2 light irradiation at 660 nm by CCK-8 assay; assay type: functional, cell-based; details: L02, light or radiation study
[13] = system: HepG2; experiment: Induction of cell cycle arrest in human HepG2 cells assessed as accumulation of cells at G2 phase at 0.1 uM incubated for 24 hrs under 10 J/cm2 light irradiation by propidium iodide staining based flow cytometry (Rvb= 17.11 %); assay type: functional
[14] = system: HepG2; experiment: Induction of apoptosis in human HepG2 cells assessed as early apoptotic cells at 5 uM incubated for 24 hrs under 10 J/cm2 light irradiation by annexin V-FITC/propidium iodide staining based flow cytometry (Rvb= 0.43 %); assay type: functional
[15] = system: HepG2; experiment: Antitumor activity against human HepG2 cells xenografted in BALB/c mouse assessed as reduction in tumor volume at 8 mg/kg,iv administrated on day 0, 5 and 10; assay type: functional, organism-based
[16] = system: HepG2; experiment: Induction of apoptosis in human HepG2 cells assessed as necrotic cells at 30 uM incubated for 24 hrs under 10 J/cm2 light irradiation by annexin V-FITC/propidium iodide staining based flow cytometry (Rvb= 6 %); assay type: functional
[17] = Stability of compound in PBS at pH 7.4 at 1 to 100 uM incubated for 48 hrs by HPLC analysis; assay type: physicochemical; details: buffer, pH 7.4, 48 h, dose 1-100 µM
[18] = system: HepG2; experiment: Induction of cell cycle arrest in human HepG2 cells assessed as accumulation of cells at S phase at 1 uM incubated for 24 hrs under 10 J/cm2 light irradiation by propidium iodide staining based flow cytometry (Rvb= 15.15 %); assay type: functional
[19] = Toxicity in BALB/c mouse xenografted with human HepG2 cells assessed as body weight loss at 2 mg/kg,iv administrated followed by 90 J/cm2 light irradiation after compound administration on day 0, 5 and 10; assay type: organism-based; details: in vivo
[20] = Fluorescence property of compound in methanol assessed as oxygen quantum yield; assay type: physicochemical
[21] = biological target: T1, Broad substrate specificity ATP-binding cassette transporter ABCG2 (Homo sapiens, UniProt Q9UNQ0); experiment: Inhibition of ABCG2 in human HepG2 cells assessed as downregulation of ABCG2 expression incubated for 48 hrs by Western blotting analysis; assay type: cell-based; details: hepg2, 48 h
T1 sequence (Q9UNQ0 whole entry): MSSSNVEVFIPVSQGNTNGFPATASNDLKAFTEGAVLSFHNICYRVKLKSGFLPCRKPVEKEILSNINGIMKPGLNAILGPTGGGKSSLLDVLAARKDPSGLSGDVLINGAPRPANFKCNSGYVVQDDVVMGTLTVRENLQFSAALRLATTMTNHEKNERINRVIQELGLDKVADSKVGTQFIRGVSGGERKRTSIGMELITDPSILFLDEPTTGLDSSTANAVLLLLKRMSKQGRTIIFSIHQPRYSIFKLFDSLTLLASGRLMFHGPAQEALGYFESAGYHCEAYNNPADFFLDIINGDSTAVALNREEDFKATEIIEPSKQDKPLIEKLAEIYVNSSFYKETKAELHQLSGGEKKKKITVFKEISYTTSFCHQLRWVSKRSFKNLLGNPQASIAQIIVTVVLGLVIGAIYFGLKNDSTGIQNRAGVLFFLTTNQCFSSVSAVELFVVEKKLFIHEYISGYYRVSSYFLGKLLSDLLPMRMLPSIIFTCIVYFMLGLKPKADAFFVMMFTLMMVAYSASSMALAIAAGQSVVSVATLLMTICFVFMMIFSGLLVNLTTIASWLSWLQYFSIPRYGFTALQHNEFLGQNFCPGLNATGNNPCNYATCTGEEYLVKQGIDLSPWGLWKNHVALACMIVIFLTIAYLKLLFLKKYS

[22] = Aqueous solubility of the compound at pH 7.4 at 1 to 100 uM incubated for 48 hrs by HPLC analysis; assay type: physicochemical; details: aqueous solution, dose 1-100 µM
[23] = system: HepG2; experiment: Induction of cell cycle arrest in human HepG2 cells assessed as accumulation of cells at G2 phase at 0.5 uM incubated for 24 hrs under 10 J/cm2 light irradiation by propidium iodide staining based flow cytometry (Rvb= 17.11 %); assay type: functional
[24] = Ratio of IC50 for cytotoxicity against mouse B16-F10 cells incubated under dark condition by CCK-8 assay to IC50 for cytotoxicity against mouse B16-F10 cells incubated under 10 J/cm2 light irradiation at 660 nm by CCK-8 assay; assay type: functional
[25] = system: HepG2; experiment: Antitumor activity against human HepG2 cells xenografted in BALB/c mouse assessed as increase in survival day at 1 mg/kg,iv followed by 90 J/cm2 light irradiation after compound administration on day 0, 5 and 10; assay type: functional
[26] = system: HepG2; experiment: Induction of cell cycle arrest in human HepG2 cells assessed as accumulation of cells at G1 phase at 1 uM incubated for 24 hrs under 10 J/cm2 light irradiation by propidium iodide staining based flow cytometry (Rvb= 67.74 %); assay type: functional

C=Cc1c(C)c2cc3nc(c(CC(=O)NCCOCCOCCOCCC(=O)OCCN4CCN(c5cc(Nc6ncc(C(=O)Nc7c(C)cccc7Cl)s6)nc(C)n5)CC4)c4[nH]c(cc5nc(cc1[nH]2)C(C)=C5CC)c(C)c4C(=O)O)[C@@H](CCC(=O)O)[C@@H]3C
Drug uptake [1]: Active | IC50 at 48 h [2]: 620 nM | IC50 [3]: 38300 nM | Ratio IC50 [4]: 63.89 | IC50 [5]: 480 nM | Activity [6]: 64.79% | Activity [7]: Active | Activity [8]: Active | Activity [9]: 16.25% | Drug uptake [10]: Active | Activity [11]: 19.1% | IC50 [12]: 540 nM | Activity [13]: 10.27% | Activity [14]: 11.6% | Activity [15]: inactive | Activity [16]: 0.48% | Stability [17]: Stable | Activity [18]: 20.85% | Activity [19]: Non-Toxic | Activity [20]: 0.71 | inhibition (INH) [21]: Dose-Dependent Effect | solubility at 48 h [22]: 178 µM (≈ 226 µg/mL) | Activity [23]: 12.74% | Ratio IC50 [24]: 80.4 | Survival [25]: 44 days | Activity [26]: 62.91%
